# ChEMBL document CHEMBL3046912, “Effectiveness of 1,3-dichloropropene as an alternative to methyl bromide in rotations of tomato (Solanum lycopersicum) and cucumber (Cucumis sativus) in China” (2012)
# Active and inactive are the calls of the source. The calls are words filed in the database; no cut-off is given here.
# Legend:
# Solanum lycopersicum [1] = experiment: Increase in crop yield in Cucumis sativus (cucumber) plants exposed to 90 L/ha compound fumigation treatment assessed as large fruit yield (reference value: 19.5 ton/ha); format: functional
# Capsella bursa-pastoris [2] = experiment: Herbicidal activity against Capsella bursa-pastoris in tomato plants fields exposed to 180 L/ha compound fumigation treatment assessed as hand weeding time per plot relative to untreated control; format: functional
# Solanum lycopersicum [3] = experiment: Increase in plant height of Solanum lycopersicum (tomato) exposed to 90 L/ha compound fumigation treatment measured 50 days after compound treatment (reference value: 86.2 cm); format: functional
# Capsella bursa-pastoris [4] = experiment: Herbicidal activity against Capsella bursa-pastoris in tomato plants fields exposed to 120 L/ha compound fumigation treatment assessed as hand weeding time per plot relative to untreated control; format: functional
# Arenaria serpyllifolia [5] = experiment: Herbicidal activity against Arenaria serpyllifolia in tomato plants fields exposed to 180 L/ha compound fumigation treatment assessed as hand weeding time per plot (reference value: 243.3 hr/ha); format: functional
# Arenaria serpyllifolia [6] = experiment: Herbicidal activity against Arenaria serpyllifolia in cucumber plants fields exposed to 120 L/ha compound fumigation treatment assessed as hand weeding time per plot (reference value: 258.3 hr/ha); format: functional
# Meloidogyne incognita [7] = experiment: Nematicidal activity against Meloidogyne incognita (root-knot nematode) in cucumber growing fields exposed to 90 L/ha compound fumigation treatment assessed as root galling index measured 20 days after compound treatment (reference value: 8.72 root galling index); format: functional
# Solanum lycopersicum [8] = experiment: Increase in crop yield in Cucumis sativus (cucumber) plants exposed to 120 L/ha compound fumigation treatment assessed as medium fruit yield (reference value: 38.6 ton/ha); format: functional
# Meloidogyne incognita [9] = experiment: Nematicidal activity against Meloidogyne incognita (root-knot nematode) in tomato growing fields exposed to 90 L/ha compound fumigation treatment assessed as root galling index measured 20 days after compound treatment (reference value: 8.51 root galling index); format: functional
# Capsella bursa-pastoris [10] = experiment: Herbicidal activity against Capsella bursa-pastoris in tomato plants fields exposed to 120 L/ha compound fumigation treatment assessed as hand weeding time per plot (reference value: 243.3 hr/ha); format: functional
# Digitaria sanguinalis [11] = experiment: Herbicidal activity against Digitaria sanguinalis (hairy crabgrass) in tomato plants fields exposed to 120 L/ha compound fumigation treatment assessed as hand weeding time per plot (reference value: 243.3 hr/ha); format: functional
# Arenaria serpyllifolia [12] = experiment: Herbicidal activity against Arenaria serpyllifolia in tomato plants fields exposed to 180 L/ha compound fumigation treatment assessed as hand weeding time per plot relative to untreated control; format: functional
# Solanum lycopersicum [13] = experiment: Increase in plant height of Solanum lycopersicum (tomato) exposed to 180 L/ha compound fumigation treatment measured 50 days after compound treatment (reference value: 86.2 cm); format: functional
# Cucumis sativus [14] = experiment: Increase in plant height of Cucumis sativus (cucumber) exposed to 180 L/ha compound fumigation treatment measured 30 days after compound treatment (reference value: 85.6 cm); format: functional
# Cucumis sativus [15] = experiment: Increase in plant height of Cucumis sativus (cucumber) exposed to 120 L/ha compound fumigation treatment measured 50 days after compound treatment (reference value: 103.2 cm); format: functional
# Digitaria sanguinalis [16] = experiment: Herbicidal activity against Digitaria sanguinalis (hairy crabgrass) in tomato plants fields exposed to 180 L/ha compound fumigation treatment assessed as hand weeding time per plot relative to untreated control; format: functional
# Capsella bursa-pastoris [17] = experiment: Herbicidal activity against Capsella bursa-pastoris in cucumber plants fields exposed to 180 L/ha compound fumigation treatment assessed as hand weeding time per plot relative to untreated control; format: functional
# Phytophthora melonis = experiment: Fungicidal activity against Phytophthora melonis-induced blight disease in cucumber plants at 120 to 180 L/ha measured 20 to 60 days post compound treatment; format: functional, organism-based
# Solanum lycopersicum [18] = experiment: Increase in plant height of Solanum lycopersicum (tomato) exposed to 90 L/ha compound fumigation treatment measured 30 days after compound treatment (reference value: 28.4 cm); format: functional
# Solanum lycopersicum [19] = experiment: Increase in crop yield in Solanum lycopersicum (tomato) plants exposed to 90 L/ha compound fumigation treatment assessed as large fruit yield (reference value: 15.2 ton/ha); format: functional
# Botrytis cinerea = experiment: Fungicidal activity against Botryotinia fuckeliana-induced withering in tomato plants at 120 to 180 L/ha measured 20 to 60 days post compound treatment; format: functional, organism-based
# Digitaria sanguinalis [20] = experiment: Herbicidal activity against Digitaria sanguinalis (hairy crabgrass) in tomato plants fields exposed to 90 L/ha compound fumigation treatment assessed as hand weeding time per plot (reference value: 243.3 hr/ha); format: functional
# Arenaria serpyllifolia [21] = experiment: Herbicidal activity against Arenaria serpyllifolia in cucumber plants fields exposed to 120 L/ha compound fumigation treatment assessed as hand weeding time per plot relative to untreated control; format: functional
# Digitaria sanguinalis [22] = experiment: Herbicidal activity against Digitaria sanguinalis (hairy crabgrass) in tomato plants fields exposed to 120 L/ha compound fumigation treatment assessed as hand weeding time per plot relative to untreated control; format: functional
# Digitaria sanguinalis [23] = experiment: Herbicidal activity against Digitaria sanguinalis (hairy crabgrass) in cucumber plants fields exposed to 90 L/ha compound fumigation treatment assessed as hand weeding time per plot relative to untreated control; format: functional
# Arenaria serpyllifolia [24] = experiment: Herbicidal activity against Arenaria serpyllifolia in tomato plants fields exposed to 120 L/ha compound fumigation treatment assessed as hand weeding time per plot (reference value: 243.3 hr/ha); format: functional
# Solanum lycopersicum [25] = experiment: Increase in plant height of Solanum lycopersicum (tomato) exposed to 120 L/ha compound fumigation treatment measured 50 days after compound treatment (reference value: 86.2 cm); format: functional
# Solanum lycopersicum [26] = experiment: Increase in crop yield in Cucumis sativus (cucumber) plants exposed to 120 L/ha compound fumigation treatment assessed as extra-large fruit yield (reference value: 7.2 ton/ha); format: functional
# Arenaria serpyllifolia [27] = experiment: Herbicidal activity against Arenaria serpyllifolia in cucumber plants fields exposed to 180 L/ha compound fumigation treatment assessed as hand weeding time per plot (reference value: 258.3 hr/ha); format: functional
# Solanum lycopersicum [28] = experiment: Increase in crop yield in Cucumis sativus (cucumber) plants exposed to 180 L/ha compound fumigation treatment assessed as extra-large fruit yield (reference value: 7.2 ton/ha); format: functional
# Capsella bursa-pastoris [29] = experiment: Herbicidal activity against Capsella bursa-pastoris in tomato plants fields exposed to 90 L/ha compound fumigation treatment assessed as hand weeding time per plot (reference value: 243.3 hr/ha); format: functional
# Capsella bursa-pastoris [30] = experiment: Herbicidal activity against Capsella bursa-pastoris in cucumber plants fields exposed to 90 L/ha compound fumigation treatment assessed as hand weeding time per plot (reference value: 258.3 hr/ha); format: functional
# Capsella bursa-pastoris [31] = experiment: Herbicidal activity against Capsella bursa-pastoris in cucumber plants fields exposed to 90 L/ha compound fumigation treatment assessed as hand weeding time per plot relative to untreated control; format: functional
# Solanum lycopersicum [32] = experiment: Increase in plant height of Solanum lycopersicum (tomato) exposed to 180 L/ha compound fumigation treatment measured 30 days after compound treatment (reference value: 28.4 cm); format: functional
# Solanum lycopersicum [33] = experiment: Increase in crop yield in Solanum lycopersicum (tomato) plants exposed to 180 L/ha compound fumigation treatment assessed as extra-large fruit yield (reference value: 3.8 ton/ha); format: functional
# Digitaria sanguinalis [34] = experiment: Herbicidal activity against Digitaria sanguinalis (hairy crabgrass) in tomato plants fields exposed to 90 L/ha compound fumigation treatment assessed as hand weeding time per plot relative to untreated control; format: functional
# Solanum lycopersicum [35] = experiment: Increase in crop yield in Solanum lycopersicum (tomato) plants exposed to 120 L/ha compound fumigation treatment assessed as extra-large fruit yield (reference value: 3.8 ton/ha); format: functional
compound,measurement,setting,value
"Cl/C=C/CCl [1,3-DICHLOROPROPENE]",Crop_yield,Solanum lycopersicum [1],24.8 tons/ha
same,Activity,Capsella bursa-pastoris [2],45%
same,Activity,Solanum lycopersicum [3],98.3 cm
same,Activity,Capsella bursa-pastoris [4],45%
same,Time,Arenaria serpyllifolia [5],55.6 hr/ha
same,Time,Arenaria serpyllifolia [6],74.4 hr/ha
same,Root_galling_index,Meloidogyne incognita [7],4.28
same,Crop_yield,Solanum lycopersicum [8],49.1 tons/ha
same,Root_galling_index,Meloidogyne incognita [9],3.28
same,Time,Capsella bursa-pastoris [10],66.4 hr/ha
same,Time,Digitaria sanguinalis [11],66.4 hr/ha
same,Activity,Arenaria serpyllifolia [12],45%
same,Activity,Solanum lycopersicum [13],117.8 cm
same,Activity,Cucumis sativus [14],105.6 cm
same,Activity,Cucumis sativus [15],120.5 cm
same,Activity,Digitaria sanguinalis [16],45%
same,Activity,Capsella bursa-pastoris [17],45%
same,Activity,Phytophthora melonis,Active
same,Activity,Solanum lycopersicum [18],32.4 cm
same,Crop_yield,Solanum lycopersicum [19],18.9 tons/ha
same,Activity,Botrytis cinerea,Active
same,Time,Digitaria sanguinalis [20],85.6 hr/ha
same,Activity,Arenaria serpyllifolia [21],45%
same,Activity,Digitaria sanguinalis [22],45%
same,Activity,Digitaria sanguinalis [23],45%
same,Time,Arenaria serpyllifolia [24],66.4 hr/ha
same,Activity,Solanum lycopersicum [25],108.6 cm
same,Crop_yield,Solanum lycopersicum [26],12.1 tons/ha
same,Time,Arenaria serpyllifolia [27],62.3 hr/ha
same,Crop_yield,Solanum lycopersicum [28],14.8 tons/ha
same,Time,Capsella bursa-pastoris [29],85.6 hr/ha
same,Time,Capsella bursa-pastoris [30],90.5 hr/ha
same,Activity,Capsella bursa-pastoris [31],45%
same,Activity,Solanum lycopersicum [32],45.4 cm
same,Crop_yield,Solanum lycopersicum [33],8.4 tons/ha
same,Activity,Digitaria sanguinalis [34],45%
same,Crop_yield,Solanum lycopersicum [35],6.4 tons/ha
